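Growth conditions: 96-well plates. Treatment: test compound, 48 hours, 5 concentrations. Analysis: linear interpolation between bracketing concentrations; unreached endpoints set to highest concentration. GI50 marks 50% less growth. At the TGI there is no net growth.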
Key:
Assay in all cases: inhibition of tumour cell growth, NCI panel, 48 h
SR leukemia = system: SR leukemia
RPMI-8226 leukemia = system: RPMI-8226 leukemia
HOP-62 NSCLC = system: HOP-62 NSCLC
LOX IMVI melanoma = system: LOX IMVI melanoma
NCI-H460 lung = system: NCI-H460 lung
NCI-H226 lung = system: NCI-H226 lung
SK-MEL-2 melanoma = system: SK-MEL-2 melanoma
SNB-19 CNS = system: SNB-19 CNS
SF-539 CNS = system: SF-539 CNS
ACHN renal = system: ACHN renal
OVCAR-8 ovarian = system: OVCAR-8 ovarian
PC-3 prostate = system: PC-3 prostate
BT-549 breast = system: BT-549 breast
MOLT-4 leukemia = system: MOLT-4 leukemia
COLO 205 colon = system: COLO 205 colon
SF-268 CNS = system: SF-268 CNS
HS 578T breast = system: HS 578T breast
MDA-MB-435 = system: MDA-MB-435
M14 melanoma = system: M14 melanoma
IGROV1 ovarian = system: IGROV1 ovarian
SN12C renal = system: SN12C renal
SK-MEL-5 melanoma = system: SK-MEL-5 melanoma
NCI-H522 lung = system: NCI-H522 lung
A549 NSCLC = system: A549 NSCLC
MCF7 breast = system: MCF7 breast
CCRF-CEM leukemia = system: CCRF-CEM leukemia
HL-60(TB) leukemia = system: HL-60(TB) leukemia
HCT-116 colon = system: HCT-116 colon
DU-145 prostate = system: DU-145 prostate
OVCAR-3 ovarian = system: OVCAR-3 ovarian
SNB-75 CNS = system: SNB-75 CNS
A498 renal = system: A498 renal
HT29 colon = system: HT29 colon
NCI/ADR-RES ovarian = system: NCI/ADR-RES ovarian
UO-31 renal = system: UO-31 renal
HCT-15 colon = system: HCT-15 colon
MDA-MB-231 breast = system: MDA-MB-231 breast
K-562 leukemia = system: K-562 leukemia
UACC-257 melanoma = system: UACC-257 melanoma
RXF 393 renal = system: RXF 393 renal
SK-MEL-28 melanoma = system: SK-MEL-28 melanoma
KM12 colon = system: KM12 colon
OVCAR-5 ovarian = system: OVCAR-5 ovarian
UACC-62 melanoma = system: UACC-62 melanoma
SW-620 colon = system: SW-620 colon
OVCAR-4 ovarian = system: OVCAR-4 ovarian
HCC-2998 colon = system: HCC-2998 colon
SF-295 CNS = system: SF-295 CNS
CAKI-1 renal = system: CAKI-1 renal
U251 CNS = system: U251 CNS
786-0 renal = system: 786-0 renal
SK-OV-3 ovarian = system: SK-OV-3 ovarian

`O=C1C=C(Nc2cccc(Br)c2)c2ccccc2C1=O` was tested, and the GI50 (SR leukemia) was 10.2 µM, the TGI (SR leukemia) was 40.3 µM and the GI50 (RPMI-8226 leukemia) was 22.2 µM. For the same molecule, the TGI (RPMI-8226 leukemia) was over 100 µM, the GI50 (HOP-62 NSCLC) was 2.29 µM and the TGI (HOP-62 NSCLC) was 26.1 µM. It also gave a GI50 (LOX IMVI melanoma) of 4.35 µM, a TGI (LOX IMVI melanoma) of 21.5 µM and a GI50 (NCI-H460 lung) of 0.402 µM. The TGI (NCI-H460 lung) was 25.7 µM, the GI50 (NCI-H226 lung) was 21.7 µM and the TGI (NCI-H226 lung) was 99.4 µM. It also gave a GI50 (SK-MEL-2 melanoma) of 0.785 µM, a TGI (SK-MEL-2 melanoma) of 22 µM and a GI50 (SNB-19 CNS) of 6.56 µM. The TGI (SNB-19 CNS) was over 100 µM, the GI50 (SF-539 CNS) was 1.93 µM and the TGI (SF-539 CNS) was 4.56 µM. For the same molecule, the GI50 (ACHN renal) was 0.957 µM, the TGI (ACHN renal) was over 100 µM and the GI50 (OVCAR-8 ovarian) was 18.6 µM. For the same molecule, the TGI (OVCAR-8 ovarian) was 93.4 µM, the GI50 (PC-3 prostate) was 8.68 µM and the TGI (PC-3 prostate) was over 100 µM. It also gave a GI50 (BT-549 breast) of 4.58 µM, a TGI (BT-549 breast) of 33.9 µM and a GI50 (MOLT-4 leukemia) of 18.4 µM. It also gave a TGI (MOLT-4 leukemia) of 42.7 µM, a GI50 (COLO 205 colon) of over 100 µM and a TGI (COLO 205 colon) of over 100 µM. It also gave a GI50 (SF-268 CNS) of 9.01 µM, a TGI (SF-268 CNS) of over 100 µM and a GI50 (HS 578T breast) of 0.259 µM. It also gave a TGI (HS 578T breast) of 14.4 µM, a GI50 (MDA-MB-435) of 0.19 µM and a TGI (MDA-MB-435) of 0.484 µM. It also gave a GI50 (M14 melanoma) of 0.611 µM, a TGI (M14 melanoma) of 13.1 µM and a GI50 (IGROV1 ovarian) of 10.5 µM. The TGI (IGROV1 ovarian) was 37.5 µM, the GI50 (SN12C renal) was 5.79 µM and the TGI (SN12C renal) was 23.8 µM. The GI50 (SK-MEL-5 melanoma) was 1.2 µM, the TGI (SK-MEL-5 melanoma) was 10.5 µM and the GI50 (NCI-H522 lung) was 4.79 µM. The TGI (NCI-H522 lung) was 60.1 µM, the GI50 (A549 NSCLC) was 1.54 µM and the TGI (A549 NSCLC) was 12.3 µM. It also gave a GI50 (MCF7 breast) of 2.71 µM, a TGI (MCF7 breast) of 24.2 µM and a GI50 (CCRF-CEM leukemia) of 21.4 µM. The TGI (CCRF-CEM leukemia) was 82.9 µM, the GI50 (HL-60(TB) leukemia) was 9.56 µM and the TGI (HL-60(TB) leukemia) was 34.5 µM. It also gave a GI50 (HCT-116 colon) of 10.6 µM, a TGI (HCT-116 colon) of 44.5 µM and a GI50 (DU-145 prostate) of 0.569 µM. For the same molecule, the TGI (DU-145 prostate) was 14 µM, the GI50 (OVCAR-3 ovarian) was 2.89 µM and the TGI (OVCAR-3 ovarian) was 16 µM. The GI50 (SNB-75 CNS) was 0.39 µM, the TGI (SNB-75 CNS) was 5.01 µM and the GI50 (A498 renal) was 4.06 µM. It also gave a TGI (A498 renal) of 27.2 µM, a GI50 (HT29 colon) of 69.1 µM and a TGI (HT29 colon) of over 100 µM. The GI50 (NCI/ADR-RES ovarian) was 10.8 µM, the TGI (NCI/ADR-RES ovarian) was 51.6 µM and the GI50 (UO-31 renal) was 1.81 µM. For the same molecule, the TGI (UO-31 renal) was 33.6 µM, the GI50 (HCT-15 colon) was 1.33 µM and the TGI (HCT-15 colon) was over 100 µM. For the same molecule, the GI50 (MDA-MB-231 breast) was 1.51 µM, the TGI (MDA-MB-231 breast) was 36.5 µM and the GI50 (K-562 leukemia) was 1.52 µM. For the same molecule, the TGI (K-562 leukemia) was 18.3 µM, the GI50 (UACC-257 melanoma) was 5.99 µM and the TGI (UACC-257 melanoma) was over 100 µM. For the same molecule, the GI50 (RXF 393 renal) was 3.27 µM, the TGI (RXF 393 renal) was 22.4 µM and the GI50 (SK-MEL-28 melanoma) was 8.76 µM. The TGI (SK-MEL-28 melanoma) was 61.4 µM, the GI50 (KM12 colon) was 4.13 µM and the TGI (KM12 colon) was over 100 µM. It also gave a GI50 (OVCAR-5 ovarian) of 14.5 µM, a TGI (OVCAR-5 ovarian) of 34.3 µM and a GI50 (UACC-62 melanoma) of 2.96 µM. It also gave a TGI (UACC-62 melanoma) of 18 µM, a GI50 (SW-620 colon) of 0.482 µM and a TGI (SW-620 colon) of over 100 µM. The GI50 (OVCAR-4 ovarian) was 11 µM, the TGI (OVCAR-4 ovarian) was 63.2 µM and the GI50 (HCC-2998 colon) was 12.1 µM. The TGI (HCC-2998 colon) was over 100 µM, the GI50 (SF-295 CNS) was 3.21 µM and the TGI (SF-295 CNS) was 15.1 µM. It also gave a GI50 (CAKI-1 renal) of 4.16 µM, a TGI (CAKI-1 renal) of over 100 µM and a GI50 (U251 CNS) of 2.74 µM. The TGI (U251 CNS) was 22.1 µM, the GI50 (786-0 renal) was 7.25 µM and the TGI (786-0 renal) was 28.2 µM. It also gave a GI50 (SK-OV-3 ovarian) of 6.42 µM and a TGI (SK-OV-3 ovarian) of 30 µM.
Molecule `[O-]c1c2cc(-[n+]3c(-c4ccccc4)cc(-c4ccccc4)cc3-c3ccccc3)cc1CO[C@@H](c1ccccc1)[C@H](c1ccccc1)OCc1cccc(n1)CO[C@@H](c1ccccc1)[C@H](c1ccccc1)OC2` has a TGI (UACC-62 melanoma) of 1.68 µM.
